US11297861B2, “Sweet protein from truffle” (MycoTechnology, Inc., priority 2020, dated 2022)

Tested on: sweet taste
Assay: CATA time intensity of the sweet sensation, trained panel
Assay type: in vivo, human
Settings: 10% sucrose in water
Procedure: Evaluation of thaumatin, sucrose, and SEQ ID NO:21 was carried out using a CATA (click all that apply) time intensity of the sweet sensation of named analytes in water at 0.045 mg/ml for proteins and 10% sucrose. Methodology: Time Intensity Technique; Data collection software: EyeQuestion, responses recorded every 2.57 seconds; Scaling Method: a 15-point sweet scale, e.g. score 5=5% sucrose, score 10=10% sucrose; Evaluation Protocol: small volume sip, tilt and spit test. There were 3-6 panelists and 2 replicates. All samples were blinded and presented with randomized 3-digit codes. Training Strategies: An intense training on sweet scale over 6 weeks on 15-point sweet scale to confidently assign sweet values. Due to unique sweet behavioral patterns, it is necessary to train time intensity principles over 3 weeks. Samples were tasted with a stopwatch to note times and help reach a consensus. # of Panelists: 3-6, # of replications: 2. All samples were blinded and presented with randomized 3-digit codes. Statistical analysis: due to the small # of panelists, a statistical analysis cannot be performed.

OC[C@H]1O[C@@](CO)(O[C@H]2O[C@H](CO)[C@@H](O)[C@H](O)[C@H]2O)[C@@H](O)[C@@H]1O [SUC, sucrose]
time to threshold sweetness (Intensity <1): 162 s
